Test results: patent US20260317307A1, “Process for the Preparation of Deucravacitinib, and Crystalline Forms Thereof” (Alivus Life Sciences Limited, priority 2023, published 2026)

How the values were obtained:
[1] = Stability of crystalline form A (polymorphic form identification by XRPD on storage); type: physicochemical; details: 1 Month, complies with Form A
Text: Stability data of crystalline form A of deucravacitinib prepared by the present invention: […]

[2] = Particle size of crystalline form A (Example 38); type: physicochemical

For [2H]C([2H])([2H])NC(=O)c1nnc(NC(=O)C2CC2)cc1Nc1cccc(-c2ncn(C)n2)c1OC [crystalline form A of deucravacitinib, 6-(cyclopropanecarboxamido)-4-((2-methoxy-3-(1-methyl-1H-1,2,4-triazol-3-yl)phenyl)amino)-N-(trideuteriomethyl)pyridazine-3-carboxamide], the “Polymorphic Form Identification: XRPD pattern should exhibit characteristic peaks of Form A at 10.1°, 12.4°, 18.9°, 19.3° and 20.4° ± 0.2° 2 theta” value (“Polymorphic Form Identification” below) ([1]; storage 25 °C/60% RH) was “Complies”, the “Polymorphic Form Identification” value ([1]; storage 40 °C/75% RH) was “Complies” and the “Polymorphic Form Identification” value ([1]; storage 60 °C/90% RH) was “Complies”. For the same compound, the “Particle Size D10” value ([2]; After jet milling) was 1.6 μm, the “Particle Size D50” value ([2]; After jet milling) was 3.0 μm and the “Particle Size D90” value ([2]; After jet milling) was 5.6 μm. For the same compound, the “Particle Size D10” value ([2]; before jet milling) was 9.4 μm, the “Particle Size D50” value ([2]; before jet milling) was 21.64 μm and the “Particle Size D90” value ([2]; before jet milling) was 39.49 μm.
